What was measured:
[1] = biological target: T1, 5-hydroxytryptamine receptor 3A (Homo sapiens, UniProt P46098); assay: Displacement of [9-methyl-3H]BRL-43694 from human 5-HT3A receptor after overnight incubation by scintillation proximity assay
T1 sequence (P46098 whole entry): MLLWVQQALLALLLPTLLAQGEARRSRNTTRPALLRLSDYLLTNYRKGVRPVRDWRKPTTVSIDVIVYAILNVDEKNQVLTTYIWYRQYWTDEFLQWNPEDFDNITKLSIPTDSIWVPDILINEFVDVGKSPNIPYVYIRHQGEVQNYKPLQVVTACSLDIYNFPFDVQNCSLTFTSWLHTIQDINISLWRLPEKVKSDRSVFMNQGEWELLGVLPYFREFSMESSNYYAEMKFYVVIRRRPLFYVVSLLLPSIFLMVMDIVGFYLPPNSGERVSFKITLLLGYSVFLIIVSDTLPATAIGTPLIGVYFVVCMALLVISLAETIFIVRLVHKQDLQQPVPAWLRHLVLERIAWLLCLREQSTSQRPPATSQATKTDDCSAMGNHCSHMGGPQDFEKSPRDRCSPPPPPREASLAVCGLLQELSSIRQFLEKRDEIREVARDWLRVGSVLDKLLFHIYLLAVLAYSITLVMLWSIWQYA

[2] = biological target: T2, 5-hydroxytryptamine receptor 3A (Homo sapiens) (UniProt P46098); assay: Partial agonist activity at human 5-HT3A receptor expressed in HEK293 cells assessed as change in Ca2+ level measured as intrinsic activity at 1 uM relative to 5-HT in presence of carbachol; assay type: cell-based
T2 sequence (whole entry): T1 sequence (P46098 whole entry)

[3] = biological target: T3, 5-hydroxytryptamine receptor 3A (Mus musculus) (UniProt P23979); assay: Partial agonist activity at mouse 5-HT3A receptor expressed in HEK293 cells assessed as change in Ca2+ level measured as intrinsic activity at 1 uM relative to 5-HT in presence of carbachol; assay type: cell-based
T3 sequence (whole entry): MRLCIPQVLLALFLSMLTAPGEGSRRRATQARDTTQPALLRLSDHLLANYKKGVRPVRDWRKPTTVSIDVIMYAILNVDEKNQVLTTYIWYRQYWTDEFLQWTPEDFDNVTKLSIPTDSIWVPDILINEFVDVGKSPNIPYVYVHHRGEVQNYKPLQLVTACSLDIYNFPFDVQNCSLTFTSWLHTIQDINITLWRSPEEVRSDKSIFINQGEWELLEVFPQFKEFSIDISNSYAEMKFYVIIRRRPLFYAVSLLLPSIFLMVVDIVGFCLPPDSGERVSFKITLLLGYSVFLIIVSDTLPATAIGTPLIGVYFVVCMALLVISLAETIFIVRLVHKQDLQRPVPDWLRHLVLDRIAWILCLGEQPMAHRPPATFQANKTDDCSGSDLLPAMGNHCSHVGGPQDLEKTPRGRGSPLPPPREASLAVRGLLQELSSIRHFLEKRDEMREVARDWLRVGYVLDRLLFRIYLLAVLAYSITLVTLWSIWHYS

[4] = biological target: T1, 5-hydroxytryptamine receptor 3A; assay: Agonist activity at human 5-HT3A receptor expressed in HEK293 cells in presence of carbachol; assay type: cell-based
[5] = biological target: T4, 5-hydroxytryptamine receptor 3A (Mus musculus, UniProt P23979); assay: Agonist activity at mouse 5-HT3A receptor expressed in HEK293 cells in presence of carbachol; assay type: cell-based
T4 sequence (P23979 whole entry): T3 sequence (whole entry)

[6] = biological target: T5, Cytochrome P450 1A2 (Homo sapiens, UniProt P05177); assay: Inhibition of CYP1A2 (unknown origin); assay type: ADME
T5 sequence (P05177 whole entry): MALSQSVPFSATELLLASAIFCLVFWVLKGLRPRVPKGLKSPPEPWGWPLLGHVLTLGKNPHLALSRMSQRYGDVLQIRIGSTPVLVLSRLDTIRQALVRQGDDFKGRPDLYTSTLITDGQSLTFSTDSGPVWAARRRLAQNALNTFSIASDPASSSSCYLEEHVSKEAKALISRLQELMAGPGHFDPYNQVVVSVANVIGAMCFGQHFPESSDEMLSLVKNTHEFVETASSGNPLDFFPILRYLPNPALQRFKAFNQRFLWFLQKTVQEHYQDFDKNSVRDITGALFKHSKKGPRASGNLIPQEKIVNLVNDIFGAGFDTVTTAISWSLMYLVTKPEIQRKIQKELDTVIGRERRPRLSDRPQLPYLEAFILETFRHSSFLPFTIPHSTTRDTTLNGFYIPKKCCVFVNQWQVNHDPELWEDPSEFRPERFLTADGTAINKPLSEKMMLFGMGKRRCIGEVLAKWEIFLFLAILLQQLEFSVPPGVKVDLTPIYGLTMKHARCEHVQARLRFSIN

[7] = biological target: T6, Cytochrome P450 2B6 (Homo sapiens, UniProt P20813); assay: Inhibition of CYP2B6 (unknown origin); assay type: ADME
T6 sequence (P20813 whole entry): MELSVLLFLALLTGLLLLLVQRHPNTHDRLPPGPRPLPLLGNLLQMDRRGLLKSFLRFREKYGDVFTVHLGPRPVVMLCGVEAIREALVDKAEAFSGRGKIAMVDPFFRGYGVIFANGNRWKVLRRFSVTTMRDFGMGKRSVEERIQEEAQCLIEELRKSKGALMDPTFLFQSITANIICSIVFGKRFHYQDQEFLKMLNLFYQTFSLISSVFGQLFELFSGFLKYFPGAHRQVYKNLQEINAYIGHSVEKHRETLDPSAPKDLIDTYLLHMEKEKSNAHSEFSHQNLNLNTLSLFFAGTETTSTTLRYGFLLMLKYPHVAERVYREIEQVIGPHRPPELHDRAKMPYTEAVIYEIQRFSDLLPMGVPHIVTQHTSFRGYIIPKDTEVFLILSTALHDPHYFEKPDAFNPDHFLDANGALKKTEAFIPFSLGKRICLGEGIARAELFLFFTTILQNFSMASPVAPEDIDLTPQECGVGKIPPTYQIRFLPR

[8] = biological target: Cytochrome P450 2C9 (Homo sapiens, UniProt P11712); assay: Inhibition of CYP2C9 (unknown origin); assay type: ADME
Sequence of Cytochrome P450 2C9 (P11712 whole entry): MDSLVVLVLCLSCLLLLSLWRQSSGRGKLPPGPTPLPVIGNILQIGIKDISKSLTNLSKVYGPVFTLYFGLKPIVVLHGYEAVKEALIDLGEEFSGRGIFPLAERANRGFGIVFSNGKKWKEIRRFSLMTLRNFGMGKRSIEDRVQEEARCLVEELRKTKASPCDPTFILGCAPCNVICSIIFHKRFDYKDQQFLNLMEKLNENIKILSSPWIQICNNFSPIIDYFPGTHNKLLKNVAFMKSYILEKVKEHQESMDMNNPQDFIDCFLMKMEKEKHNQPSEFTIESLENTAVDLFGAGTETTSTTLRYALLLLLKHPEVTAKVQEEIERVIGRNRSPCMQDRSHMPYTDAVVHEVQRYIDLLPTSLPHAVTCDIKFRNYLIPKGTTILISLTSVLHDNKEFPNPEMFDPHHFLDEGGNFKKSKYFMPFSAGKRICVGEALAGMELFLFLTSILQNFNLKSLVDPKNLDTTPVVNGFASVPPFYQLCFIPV

[9] = biological target: Cytochrome P450 2C19 (Homo sapiens, UniProt P33261); assay: Inhibition of CYP2C19 (unknown origin); assay type: ADME
Sequence of Cytochrome P450 2C19 (P33261 whole entry): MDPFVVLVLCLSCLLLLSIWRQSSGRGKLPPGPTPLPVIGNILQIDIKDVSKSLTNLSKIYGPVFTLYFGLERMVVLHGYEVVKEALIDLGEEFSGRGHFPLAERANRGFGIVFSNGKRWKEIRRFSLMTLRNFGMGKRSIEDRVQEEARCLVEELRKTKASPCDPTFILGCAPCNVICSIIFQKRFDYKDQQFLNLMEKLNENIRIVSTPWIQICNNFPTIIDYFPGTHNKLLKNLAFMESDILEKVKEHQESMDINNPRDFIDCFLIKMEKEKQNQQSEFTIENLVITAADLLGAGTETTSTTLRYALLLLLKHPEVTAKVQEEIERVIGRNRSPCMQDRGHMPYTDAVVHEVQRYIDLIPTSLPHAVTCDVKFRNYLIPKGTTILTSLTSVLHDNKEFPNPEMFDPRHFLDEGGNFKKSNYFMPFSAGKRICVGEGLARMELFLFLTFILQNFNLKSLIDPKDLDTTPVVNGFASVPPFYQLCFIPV

[10] = biological target: Cytochrome P450 2D6 (Homo sapiens, UniProt P10635); assay: Inhibition of CYP2D6 (unknown origin); assay type: ADME
Sequence of Cytochrome P450 2D6 (P10635 whole entry): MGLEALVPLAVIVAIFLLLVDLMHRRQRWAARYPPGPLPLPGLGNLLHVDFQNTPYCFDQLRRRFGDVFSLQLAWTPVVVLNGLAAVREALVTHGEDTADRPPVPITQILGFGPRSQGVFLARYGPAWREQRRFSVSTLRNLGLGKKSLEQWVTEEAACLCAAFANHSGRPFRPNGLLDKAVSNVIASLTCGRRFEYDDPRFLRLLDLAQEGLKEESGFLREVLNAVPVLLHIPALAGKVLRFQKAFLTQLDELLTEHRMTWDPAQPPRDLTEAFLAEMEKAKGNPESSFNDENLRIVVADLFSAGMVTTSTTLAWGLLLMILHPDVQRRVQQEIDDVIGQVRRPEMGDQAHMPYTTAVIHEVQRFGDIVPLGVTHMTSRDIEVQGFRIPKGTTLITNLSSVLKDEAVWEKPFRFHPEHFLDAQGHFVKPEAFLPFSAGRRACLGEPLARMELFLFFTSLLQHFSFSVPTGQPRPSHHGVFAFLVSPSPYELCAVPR

[11] = biological target: Cytochrome P450 3A4 (Homo sapiens, UniProt P08684); assay: Inhibition of CYP3A4 (unknown origin); assay type: ADME
Sequence of Cytochrome P450 3A4 (P08684 whole entry): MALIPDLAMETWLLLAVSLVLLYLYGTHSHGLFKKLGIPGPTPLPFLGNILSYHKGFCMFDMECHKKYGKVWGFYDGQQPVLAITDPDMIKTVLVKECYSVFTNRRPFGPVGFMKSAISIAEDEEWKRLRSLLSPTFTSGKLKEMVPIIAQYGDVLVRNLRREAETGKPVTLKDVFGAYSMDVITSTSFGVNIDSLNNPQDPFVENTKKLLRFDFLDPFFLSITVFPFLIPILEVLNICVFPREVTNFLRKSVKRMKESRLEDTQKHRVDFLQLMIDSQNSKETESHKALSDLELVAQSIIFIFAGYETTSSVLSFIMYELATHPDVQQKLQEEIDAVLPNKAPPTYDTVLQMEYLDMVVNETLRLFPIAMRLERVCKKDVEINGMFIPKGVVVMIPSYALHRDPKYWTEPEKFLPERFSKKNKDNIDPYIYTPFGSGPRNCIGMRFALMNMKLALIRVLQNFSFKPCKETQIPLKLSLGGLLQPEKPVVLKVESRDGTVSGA

[12] = Intrinsic clearance in human liver microsomes; assay type: ADME; conditions: read-out: CLH
[13] = tested on: Mus musculus; assay: Inhibition of 5-HT induced-bradycardia in ICR mouse von Bezold-Jarisch reflex model at 1 mg/kg, po after 60 mins relative to control; assay type: functional; conditions: 1 h
[14] = tested on: Mus musculus; assay: Inhibition of 5-HT induced-bradycardia in ICR mouse von Bezold-Jarisch reflex model at 3 mg/kg, po after 60 mins relative to control; assay type: functional; conditions: 1 h

SMILES	Ki [1] [µM]	Activity [2] [%]	Activity [3] [%]	EC50 [4] [µM]	EC50 [5] [µM]	IC50 [6] [µM]	IC50 [7] [µM]	IC50 [8] [µM]	IC50 [9] [µM]	IC50 [10] [µM]	IC50 [11] [µM]	microsomal CLint [12] [µL/min/mg]	inhibition in vivo at 1 mg/kg [13] [%]	inhibition in vivo at 3 mg/kg [14] [%]
O=C1c2cccc3ccn(c23)CCN1[C@H]1CN2CCC1CC2	0.0676													
COc1cc2c3c(cnn3CCN([C@@H]3CN4CCC3CC4)C2=O)c1	0.0135	87	81	0.178	0.178	> 50	> 50	> 50	> 50	> 50	> 50	1.8		
Cc1cc2c3c(cnn3CCN([C@@H]3CN4CCC3CC4)C2=O)c1	0.0008													
O=C1c2cc(Cl)cc3cnn(c23)CCN1[C@@H]1CN2CCC1CC2		28	27	0.178	0.178	> 50	> 50	> 50	> 50	> 50	> 50	3.1		
O=C1c2cccc3[nH]c(=O)n(c23)CCN1[C@@H]1CN2CCC1CC2	0.0057	83		0.178		> 50	> 50	> 50	> 50	> 50	> 50	8.4		
Cc1[nH]cnc1CN1CCc2c(c3ccccc3n2C)C1=O [ALOSETRON]												3	95	
Cc1cn2c3c(cc(Cl)cc13)C(=O)N([C@@H]1CN3CCC1CC3)CC2						8.8						2.3		
O=C1c2cccc3ccn(c23)CCN1[C@@H]1CN2CCC1CC2	0.0031	7		0.178		> 50	> 50	> 50	> 50	> 50	> 50	< 1.7		
O=C1c2cccc3cnn(c23)CCN1[C@@H]1CN2CCC1CC2	0.0081	19	16	0.178	0.178	> 50	> 50	> 50	> 50	> 50	> 50	< 1.7		77
O=C1c2cc(F)cc3cnn(c23)CCN1[C@@H]1CN2CCC1CC2	0.0064	30	31	0.178	0.178	> 50	> 50	> 50	> 50	> 50	> 50	8.8		

Source: ChEMBL document CHEMBL3259590, “The discovery of diazepinone-based 5-HT3 receptor partial agonists” (Bioorg Med Chem Lett, 2014)
